We go through two compounds from paper PMC7204994 (Frontiers in Pharmacology, 2020).

The target of assay [1] is T1, LIMK1 (Homo sapiens, UniProt P53667). Nature of the assay: in vitro GST-cofilin phosphorylation by recombinant LIMK1, Western blot, […] compound. It counts as biochemical. Also on record: recombinant human LIMK1 (Millipore #14-656). A general note: Immunoblotting shows a protein as a band on a membrane.
Assay [2] deals with T1, LIMK1. Nature of the assay: cell-free LIMK1 biochemical assay. Conditions: cited from earlier work.

T1 sequence (P53667 whole entry): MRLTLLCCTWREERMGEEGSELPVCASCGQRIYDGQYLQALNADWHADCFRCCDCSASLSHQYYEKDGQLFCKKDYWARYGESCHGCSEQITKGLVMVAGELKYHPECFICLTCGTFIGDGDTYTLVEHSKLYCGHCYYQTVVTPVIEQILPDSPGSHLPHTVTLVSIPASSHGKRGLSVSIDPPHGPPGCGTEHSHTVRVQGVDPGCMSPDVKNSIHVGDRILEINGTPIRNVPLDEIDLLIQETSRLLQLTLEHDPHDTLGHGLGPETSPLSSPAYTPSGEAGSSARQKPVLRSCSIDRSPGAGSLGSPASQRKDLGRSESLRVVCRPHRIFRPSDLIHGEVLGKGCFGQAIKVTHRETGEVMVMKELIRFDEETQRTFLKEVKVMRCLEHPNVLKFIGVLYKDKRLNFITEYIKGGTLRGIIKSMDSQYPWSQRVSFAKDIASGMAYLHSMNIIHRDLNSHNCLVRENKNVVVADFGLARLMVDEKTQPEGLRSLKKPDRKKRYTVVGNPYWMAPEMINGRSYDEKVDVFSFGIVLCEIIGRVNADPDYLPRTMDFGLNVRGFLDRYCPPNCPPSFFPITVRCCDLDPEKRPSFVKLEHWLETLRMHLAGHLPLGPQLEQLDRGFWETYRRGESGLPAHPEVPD

With `Cn1cc(-c2[nH]c3cc(NC(=O)C(N)C4CCCCC4)cc4c3c2C=NNC4=O)cn1` (centres unmarked) [PF0477736], the “in vitro GST-cofilin phosphorylation by recombinant LIMK1, Western blot, 10 μM c” value on LIMK1 [1] was “showed that PF0477736 is indeed able to directly inhibit LIMK”.

For orientation: IC50 means the concentration that inhibits the measured activity by half. As to `Cc1c[nH]c2ncnc(-c3ccc(NC(=O)N(CCN)c4ccc(Cl)cc4)c(F)c3)c12` [SR10905, 1-(2-aminoethyl)-1-(4-chlorophenyl)-3-(2-fluoro-4-(5-methyl-7H-pyrrolo[2,3-d]pyrimidin-4-yl)phenyl)urea], the IC50 on LIMK1 [2] is 15 nM.
